In ChEMBL document CHEMBL1147194, “Synthesis and evaluation of galactofuranosyl N,N-dialkyl sulfenamides and sulfonamides as antimycobacterial agents” (2007):
Values after ≈ are worked out from the molar mass of the structure shown.

Test system: Mycolicibacterium smegmatis
Assay: Antimycobacterial activity against Mycobacterium smegmatis ATCC 14468 after 72 hrs by broth microdilution assay
Assay type: functional
Conditions: ATCC 14468, 72 h

Row | SMILES | MIC [µg/mL]
1 | O=S(=O)([C@@H]1O[C@@H]([C@H](O)CO)[C@H](O)[C@H]1O)N(Cc1ccccc1)Cc1ccccc1 | > 64
2 | CCCCCCCCCCN(CCCCCCCCCC)S(=O)(=O)[C@@H]1O[C@@H]([C@H](O)CO)[C@H](O)[C@H]1O | > 32
3 | OC[C@@H](O)[C@@H]1O[C@@H](SN(Cc2ccccc2)Cc2ccccc2)[C@H](O)[C@H]1O | 16 (≈ 40.9 µM)

Now from value to compound:

Row | MIC [µg/mL] | SMILES
4 | 64 (≈ 156 µM) | CCCCCCN(CCCCCC)S(=O)(=O)[C@@H]1O[C@@H]([C@H](O)CO)[C@H](O)[C@H]1O
5 | > 64 | CCCCCCN(CCCCCC)S[C@@H]1O[C@@H]([C@H](O)CO)[C@H](O)[C@H]1O
6 | 2 (≈ 4.28 µM) | CCCCCCCCN(CCCCCCCC)S(=O)(=O)[C@@H]1O[C@@H]([C@H](O)CO)[C@H](O)[C@H]1O
7 | 4 (≈ 9.18 µM) | CCCCCCCCN(CCCCCCCC)S[C@@H]1O[C@@H]([C@H](O)CO)[C@H](O)[C@H]1O
8 | 1 (≈ 2.03 µM) | CCCCCCCCCCN(CCCCCCCCCC)S[C@@H]1O[C@@H]([C@H](O)CO)[C@H](O)[C@H]1O
